Assay results: patent US20060287347A1, “Methods for treating smooth muscle disorders using trospium” (priority 2005, published 2006)
Where two headings read alike, the source gives them in different places.

Assays:
[1] = test system: carbachol-induced contractions of urinary bladder strips; assay: Antimuscarinic activity on bladder smooth muscle strips (carbachol-induced contractions); format: cell-based, guinea pig; settings: Cavia porcellus, read-out: KB, inhibition of carbachol-induced contractions
Experimental: • Experiments have now been performed using methods described by Kachur et al, 1988, J Pharmacol Exp Ther 247: 867-872) and Noronha-Blob et al. J Pharmacol Exp Ther 256: 562-567). Strips of tissue (approximately 10 mm long and 1.5 mm wide) were removed from the urinary bladder of male guinea pigs. The tissues were suspended in an oxygenated buffer of the following composition, in mM: NaCl 133; KCl 4.7; CaCl2 2.5; MgSO4 0.6; […] The smooth muscle strips were maintained at or about 37.5° C. in tissue chambers and allowed to equilibrate with the bathing solution for one hour before proceeding with the experiment. […] R., Wright S. E., Aberg […]. 1998, 48: 1012-1018).

[2] = test system: behavioral, neurological, autonomic and toxicity changes; assay: Cognitive side effects, Test Protocol 2: modified Irwin test; format: in vivo, mouse; settings: oral dosing
Experimental: Modified Irwin tests were performed. This is a routine neuro-pharmacological test method. Conscious mice were used. The procedure involved an initial phase of undisturbed observation and a later manipulative phase. An animal's assessment started by observing its undisturbed behavior in housing (body position, locomotor activity, etc.). Thereafter the animal was transferred by tail on the working table for the manipulative phase (spatial locomotion, gait, aggressiveness, etc.). The occurrence of any unexpected state was noted. The responses to test substances were assessed at 60 min, 120 min and 24 hrs after dosing. Animals were dose orally with trospium chloride, some groups of animals had been pretreated with phenylephrine to increase the permeability of the blood-brain barrier. Criteria included behavioral, neurological, autonomic and toxicity changes in comparison with vehicle-treated groups. The results were expressed for each group as the number of animals displaying behavioral changes versus the corresponding control group at each observation time. No statistical analysis was carried out since the lack of statistically significant differences were obvious to the investigator.

learning behavior = assay: Cognitive side effects, Test Protocol 1: T-shaped maze learning; format: in vivo, rat; settings: for Effect on learning behavior (time to choose the correct arm of the T-maze): conscious rats, naive animals
Experimental: Conscious rats are used. The animals are placed at the base of a T-shaped maze with a reward placed in one of the arms of the maze. The effect of the test article on learning is determined by investigating the time it takes in the maze before the rats choose the correct arm of the maze. Experiments were also performed in rats that had been pretreated with phenylephrine to increase the permeability of the blood-brain barrier. Control groups of animals were treated with placebo (vehicle only) or with oxybutynin.

[3] = target: T1, human recombinant muscarinic receptor M-4 (Homo sapiens, UniProt P08173); assay: Ligand binding, affinity for muscarinic receptors (M-4); settings: membranes from SF9 cells, radioligand 3H scopolamine methylchloride; read-out: Affinity (negative logarithm of the dissociation constant Ki), M-4 (converted)
T1 sequence (P08173 1-479): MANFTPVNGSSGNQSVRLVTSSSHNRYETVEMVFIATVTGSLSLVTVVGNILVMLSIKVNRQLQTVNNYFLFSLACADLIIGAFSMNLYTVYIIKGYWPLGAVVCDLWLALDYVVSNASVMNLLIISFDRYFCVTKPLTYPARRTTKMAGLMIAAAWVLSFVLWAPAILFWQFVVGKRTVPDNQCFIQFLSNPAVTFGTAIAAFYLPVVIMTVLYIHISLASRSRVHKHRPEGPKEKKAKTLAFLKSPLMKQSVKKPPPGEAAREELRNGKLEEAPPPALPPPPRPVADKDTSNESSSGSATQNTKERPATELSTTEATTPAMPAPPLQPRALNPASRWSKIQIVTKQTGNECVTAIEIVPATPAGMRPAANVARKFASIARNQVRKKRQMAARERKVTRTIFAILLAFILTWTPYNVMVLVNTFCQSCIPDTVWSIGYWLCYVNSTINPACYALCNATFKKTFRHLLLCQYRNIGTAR
Experimental: The experiments were carried out on membranes prepared from SF9 cells that expressed human recombinant muscarinic receptor subtypes. After incubation with the test article and the proper radioligand (^3H scopolamine methylchloride) and washing, bound radioactivity was determined with a liquid scintillation counter, using a commercial scintillation cocktail. The specific radioligand binding to a muscarinic receptor was defined as the difference between total binding and nonspecific binding determined in the presence of an excess of unlabelled atropine.

[4] = male guinea pig urinary bladder strips

Row | SMILES | Kb [1] [nM] | Effect on learning behavior (time to choose the correct arm of the T-maze) (learning behavior; ongoing studies) | Kb [1, 4] [nM] | Ki [3] [nM] | also measured
1 | O=C(O[C@H]1C[C@H]2CC[C@@H](C1)[N+]21CCCC1)C(O)(c1ccccc1)c1ccccc1 [Trospium, endo-3-[(hydroxydiphenyl-acetyl)oxy]spiro[8-azoniabicyclo[3.2.1]octane-8,1′-pyrrolidinium]chloride] | 1.5 to 5.5 | does not influence the learning behavior | – | – | Behavioral changes in modified Irwin test versus control group ([2]; conscious mice, assessed at 60 min, 120 min and 24 hrs): did not influence the test results; Behavioral changes in modified Irwin test after phenylephrine pretreatment ([2]; mice pretreated with phenylephrine to increase BBB permeation): no significant effects; Further impairment of learning behavior (learning behavior; rats in which a learning disorder has been induced with oxybutynin, ongoing studies): no further impairment of learning behavior; Impairment of learning behavior after phenylephrine pretreatment (learning behavior; rats pretreated with phenylephrine to increase blood-brain barrier permeability): did not uncover any impairment of learning behavior
2 | CC(CC(c1ccccc1)c1ccccc1)NC(C)(C)C (stereo not drawn) [terodiline] | – | – | 1.5 to 5.5 | – | –
3 | Cc1ccc(O)c([C@H](CCN(C(C)C)C(C)C)c2ccccc2)c1 [Tolterodine] | 1.5 to 5.5 | – | – | 12.6 | –
4 | NC(=O)C(c1ccccc1)(c1ccccc1)[C@@H]1CCN(CCc2ccc3c(c2)CCO3)C1 [Darifenacin] | – | – | – | 39.8 | –
5 | CCN(CC)CC#CCOC(=O)C(O)(c1ccccc1)C1CCCCC1 (stereo not drawn) [Oxybutynin] | – | learning is delayed | 1.5 to 5.5 | – | –
